Experimental data taken from patent US7112598B2, “κ opioid receptor agonist comprising 2-phenylbenzothiazoline derivative” (Santen Pharmaceutical Co., Ltd., priority 2002, dated 2006).
Structures can show the parent of a compound that is named as a salt.

Tests used:
[1] = test system: mouse acetic acid writhing; assay: Antinociceptive action test by mouse acetic acid writhing method; type: in vivo; conditions: 30 mg/kg oral, 20 min before 0.7% acetic acid i.p., writhing counted 10 to 20 minutes after acetic acid, vs vehicle group, average of seven samples
Method: 2. Antinociceptive Action Tests by Mouse Acetic Acid Writhing Method
Accordingly, antinociceptive action tests of test compounds were carried out using the mouse acetic acid writhing method, and analgesic effects of the test compounds were evaluated.
Twenty minutes after oral administration of the test compound (30 mg/kg), the 0.7% acetic acid solution was administered intraperitoneally in a rate of 0.1 ml per 10 g of mouse weight.
Inhibition rates were calculated according to the following equation.
The antinociceptive action of the test compound was expressed in an inhibition rate to writhing numbers of a vehicle group.

human κ opioid receptor = human κ opioid receptor (Homo sapiens, UniProt P41145); assay: κ opioid receptor agonist activity test in GTP binding activity measurement system ([35S]GTPγS binding); type: biochemical; conditions: test compound concentration 10^−9 M, binding of 10^−6 M (−)-U50488 = 100%, human κ opioid receptor membrane preparation, average of duplicate
Chain of human κ opioid receptor (P41145 whole entry): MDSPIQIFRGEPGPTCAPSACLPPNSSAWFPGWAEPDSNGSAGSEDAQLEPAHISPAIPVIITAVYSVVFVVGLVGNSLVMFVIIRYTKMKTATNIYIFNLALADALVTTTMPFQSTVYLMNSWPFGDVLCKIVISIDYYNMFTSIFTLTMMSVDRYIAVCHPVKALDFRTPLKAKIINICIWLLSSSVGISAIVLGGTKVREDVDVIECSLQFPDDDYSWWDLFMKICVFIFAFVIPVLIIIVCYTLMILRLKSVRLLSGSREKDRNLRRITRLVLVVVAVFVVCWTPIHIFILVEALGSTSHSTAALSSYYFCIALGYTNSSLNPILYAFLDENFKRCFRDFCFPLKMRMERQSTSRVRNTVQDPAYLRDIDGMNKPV
Method: 1. κ Opioid Receptor Agonist Activity Tests in GTP Binding Activity Measurement System
Jinmin Zhu et al. reported a method of evaluating agonist activities of drugs on a κ opioid receptor wherein guanosine 5′-triphosphate (GTP) radiolabelled with a human κ opioid receptor is used in J. Pharmaco. Exp. Ter., 282, 676–684 (1997). κ opioid receptor agonist activities (actions) of test compounds were evaluated according to the method described in the above-mentioned literature.
N-2-Hydroxyethylpiperazine-N′-2-ethanesulfonic acid (HEPES, 4.77 g), magnesium chloride hexahydrate (2.03 g), sodium chloride (5.84 g), disodium […] (EDTA•2Na, 0.37 g), DL-dithiothreitol (DTT, 0.15 g) and bovine serum albumin (BSA, 1.0 g) were dissolved in ultrapure water, pH was adjusted to 7.4 with sodium hydroxide, and further ultrapure water was added to the mixture so that a total amount was one liter to prepare a incubation buffer.
Nine volume of the incubation buffer was added to one volume of dimethyl sulfoxide (DMSO) to prepare a 10% DMSO-incubation buffer.
Tris(hydroxymethyl)aminomethane hydrochloride (TRIZA-HCl, 66.1 g) and Tris(hydroxymethyl)aminomethane (TRIZA-Base, 9.7 g) were dissolved in ultrapure water so that a total amount was 10 liters to prepare a 50 mM Tris-hydrochloric acid buffer (pH 7.4).
A human κ opioid receptor membrane preparation (100 unit/ml) was diluted 60 times with the incubation buffer under ice-cold to prepare a human κ opioid receptor membrane preparation solution. The membrane preparation solution was preserved under ice-cold.
A test compound was dissolved in 100% DMSO to prepare a 10^−3 M test compound solution, and then the incubation buffer was added to the 10^−3 M test compound solution to prepare a 10^−4 M test compound solution. Next, the 10% dimethyl sulfoxide-incubation buffer was added to the 10^−4 M test compound solution to prepare a 10^−5 M, 10^−6 M, 10^−7 M, 10^−8 M or 10^−9 M test compound solution.
A drug (−)-U50488 (J. Pharmacol. Exp. Ther., 224, 7–12 (1983)), which is known as a κ opioid receptor agonist, was used as a positive control drug in the tests.
(−)-U-50488 was dissolved in 100% DMSO to prepare a 10^−3 M positive control drug solution, and then the incubation buffer was added to the 10^−3 M positive control drug solution to prepare a 10^−4 M positive control drug solution. Next, the 10% DMSO-incubation buffer was added to the 10^−4 M positive control drug solution to prepare a 10^−6 M positive control drug solution.
GDP was dissolved in ultrapure water to prepare a 10^−3 M GDP solution, and the incubation buffer was added to the 10^−3 M GDP solution to prepare a 10^−5 M GDP solution.
10^−3 M [^35S]GTPγS was diluted with the incubation buffer to prepare 10^−9 M radiolabelled reagent.
• 1. The incubation buffer (50 μl), the 10^−5 M GDP solution (50 μl), the human κ opioid receptor membrane preparation solution (300 μl), the test compound solution and the 10^−9 M radiolabelled reagent (50 μl) were put into a glass tube, and then the mixture was incubated at 30° C. for 60 minutes. • 2. The 50 mM Tris-hydrochloric acid buffer (pH 7.4) was added to the mixture to stop the reaction, the reaction mixture was suction-filtered with a GF/B filter, and then the residue on the GF/B filter was washed with the 50 mM Tris-hydrochloric acid buffer (3 ml) three times. • 3. The GF/B filter was air-dried, and then the residue on the GF/B filter was taken out with an antomatic dispenser and transfered into a vial. • 4. Scintisol EX-H (5 ml) was introduced into the vial to prepare a sample solution, and then radioactivity in the sample solution was measured with a liquid scintillation counter for one minute. The radioactivity was expressed in “cpm” (counts per minute). Calculation Formula of κ Opioid Receptor Agonist Activity
Each agonist activity of the test compound on the κ opioid receptor was expressed in [^35S]GTPγS binding % when [^35S]GTPγS binding of 10^−6 M (−)-U50488 was 100%. […]

SMILES	Inhibition rate (%) [1] [%]	[^35S]GTP γ S binding % (human κ opioid receptor) [%]	other results
COc1ccc(OCCCN(C)C(C)C)c(C2Sc3cc(Cl)ccc3N2C(C)=O)c1 (single isomer, unassigned; (+)) [Compound No. 9-12, (+)-3-Acetyl-6-chloro-2-[2-(3-(N-isopropyl-N-methylamino)propoxy)-5-methoxyphenyl]benzothiazoline Hydrochloride]	57.8	107.9	–
CCOCCN(CCCOc1ccc(OC)cc1C1Sc2ccccc2N1C(C)=O)C(C)C (single isomer, unassigned; (+)) [Compound No. 11-1, (+)-3-Acetyl-2-[2-(3-(N-(2-ethoxyethyl)-N-isopropylamino)propoxy)-5-methoxyphenyl]benzothiazoline Hydrochloride]	–	–	inhibition in vivo at 30 mg/kg ([1]; read-out: Inhibition rate (%)): 98.3%; activation at 0.001 µM (human κ opioid receptor; read-out: [^35S]GTP γ S binding %): 66.8%
COc1ccc(OCCCN(CCO)C(C)C)c(C2Sc3cc(Cl)ccc3N2C(C)=O)c1 (stereo not drawn) [Compound No. 3-2, 3-Acetyl-6-chloro-2-[2-(3-(N-(2-hydroxyethyl)-N-isopropylamino)-propoxy)-5-methoxyphenyl]benzothiazoline Hydrochloride]	–	–	Inhibition rate (%) ([1]; Hydrochloride, 30 mg/kg): 76.1%; [^35S]GTP γ S binding % (human κ opioid receptor; Hydrochloride): 66.5%
COCCN(CCCOc1ccc(OC)cc1C1Sc2cc(Cl)ccc2N1C(C)=O)C(C)C (stereo not drawn) [Compound No. 3-25, 3-Acetyl-6-chloro-2-[2-(3-(N-isopropyl-N-(2-methoxyethyl)amino)-propoxy)-5-methoxyphenyl]benzothiazoline Hydrochloride]	91.0	67.9	–
CCOCCN(CCCOc1ccc(OC)cc1C1Sc2cc(Cl)ccc2N1C(C)=O)C(C)C (stereo not drawn) [Compound No. 3-33, 3-Acetyl-6-chloro-2-[2-(3-(N-(2-ethoxyethyl)-N-isopropylamino)-propoxy)-5-methoxyphenyl]benzothiazoline Hydrochloride]	–	–	Inhibition rate (%) ([1]; Hydrochloride, 30 mg/kg): 99.5%; [^35S]GTP γ S binding % (human κ opioid receptor; Hydrochloride): 75.8%
COc1ccc(OCCCN(CCO)C(C)C)c(C2Sc3ccc(Cl)cc3N2C(C)=O)c1 (stereo not drawn) [Compound No. 5-3, 3-Acetyl-5-chloro-2-[2-(3-(N-(2-hydroxyethyl)-N-isopropylamino)-propoxy)-5-methoxyphenyl]benzothiazoline Hydrochloride]	51.6	51.2	–
COc1ccc(OC(C)CCN(CCO)C(C)C)c(C2Sc3cc(Cl)ccc3N2C(C)=O)c1 (stereo not drawn) [Compound No. 7-2, 3-Acetyl-6-chloro-2-[2-(3-(N-(2-hydroxyethyl)-N-isopropylamino)-1-methylpropoxy)-5-methoxyphenyl]benzothiazoline Hydrochloride]	70.0	62.9	–
COCOCCN(CCCOc1ccc(OC)cc1C1Sc2cc(Cl)ccc2N1C(C)=O)C(C)C (stereo not drawn) [Compound No. 20-1, 3-Acetyl-6-chloro-2-[2-(3-(N-isopropyl-(N-(2-methoxymethyloxy-ethyl))amino)propoxy)-5-methoxyphenyl]benzothiazoline]	94.8	65.1	–
COCCOCOCCN(CCCOc1ccc(OC)cc1C1Sc2cc(Cl)ccc2N1C(C)=O)C(C)C (stereo not drawn) [Compound No. 20-2, 3-Acetyl-6-chloro-2-[2-(3-(N-isopropyl-N-(2-(2-methoxyethoxymethoxy)-ethyl)amino)propoxy)-5-methoxyphenyl]benzothiazoline]	81.7	50.5	–
